# In patent publication US20180136241A1, “METHOD FOR EXAMINING FOOD ALLERGY AND EXAMINATION KIT” (The University of Tokyo, priority 2014, published 2018):
# Legend:
# [1] = test system: food allergy symptoms induced by OVA; experiment: Frequency of diarrhea in OVA-induced food allergy model mouse; format: in vivo; settings: BALB/c mice sensitized with OVA, drug i.p. every day during OVA oral administration period; cromolyn 300 μg/mouse, DEX 2 mg/kg; n=5
# Description: (§1) Model preparation: Wild type BALB/c mice (6-8 weeks old, female) were intraperitoneally sensitized with OVA by administering OVA (50 μg) twice at intervals of two weeks. Two weeks later, OVA (10 mg) was orally administered 10 times in total at intervals of two days. As a control, the mice sensitized with OVA was orally administered with physiological saline 10 times in total at intervals of two days.
# Medication treatment: During the period of orally administering OVA to the mice sensitized with OVA in accordance with the aforementioned method, dexamethasone (2 mg/kg) or sodium cromoglycate (300 μg/mouse) were intraperitoneally administered every day.
# Symptom evaluation: The number of mice which developed diarrhea within one hour after the OVA administration is determined in percentage.
# [2] = test system: tetranor-PGDM amount excreted in the urine; experiment: Urinary tetranor-PGDM by HPLC-MS/MS in OVA-induced food allergy model mouse; format: in vivo; settings: BALB/c mice sensitized with OVA, drug i.p. every day during OVA oral administration period; cromolyn 300 μg/mouse, DEX 2 mg/kg; n=5
# Description: as §1
# Medication treatment: During the period of orally administering OVA to the mice sensitized with OVA in accordance with the aforementioned method, dexamethasone (2 mg/kg) or sodium cromoglycate (300 μg/mouse) were intraperitoneally administered every day. […]
# Using the urine sample pretreated, tetranor-PGDM and tetranor-PGEM were measured by a high performance liquid chromatography tandem mass spectrometer (HPLC-MS/MS). […] As a quantitative method, MRM (Multiple Reaction Monitoring) method was employed. Tetranor-PGDM (mass number 328) and tetranor-PGEM (mass number 328) were detected by using product ion m/z 309, which was produced by further decomposing the produced precursor ion m/z (mass number÷charge) 327 by collision induced dissociation (CID). Internal standards, tetranor-PGDM-d6 (mass number 334) and tetranor-PGEM-d6 (mass number 334), were detected by using product ion m/z 315, which was produced by further decomposing precursor ion m/z (mass number÷charge) 333 by CID. […]
# [3] = cited from earlier work
# [4] = cited from earlier work; remark: listed apart in the source
structure (smiles),measurement,setting,value
"O=C(O)c1cc(=O)c2c(OCC(O)COc3cccc4oc(C(=O)O)cc(=O)c34)cccc2o1 [cromolyn, sodium cromoglycate]",food allergy symptoms induced by OVA (frequency of diarrhea),[1],suppressed food allergy symptoms
same,tetranor-PGDM amount excreted in the urine,[2],significantly decreased
NCCc1c[nH]cn1 [histamine],time in which histamine in the blood disappears,[3],15 min
"CCCCC[C@H](O)/C=C/[C@H]1C(=O)C[C@H](O)[C@@H]1C/C=C\CCCC(=O)O [PGD2, prostaglandin D2]",time in which PGD2 is metabolized in vivo,[4],50 s
